What was measured:
U373 astroglioma cells [1] = assay: Long term exposure, tetrazole reduction (CIMA) proliferation assay (Example 6); format: cell-based
Method: (§1) Compound I(a) was termed CMPD A (LI568-026-02).
(§2) Cells were passaged as required by trypsinization.
(§3) Assay conditions: The effects of the test compound were assessed under long term exposure conditions. Cells were propagated as normal in T25 flasks in complete culture media supplemented with comparatively low concentrations of the compound (0, 1 and 5 μg/ml) for 28 days. At various times post-exposure, changes in proliferation rates were assessed using a standard CIMA assay.
(§4) For the current study, cells that have been exposed to the compound were seeded in 96-well plates and proliferation rates measured over 24 and 72 h periods for comparison to that of similarly aged untreated cells.

[2] = tested on: SH-SY5Y neuroblastoma cells; assay: as above; format: cell-based; settings: for AVERAGE (mean absorbance): SHSY5Y
Method: as §1, §2, §3, §4

[3] = tested on: Influenza B (strain B/Lee/40); assay: Anti-influenza cytopathic effect (CPE) assay in MDCK cells, prophylactic regimen (Example 7); format: cell-based; set-up: key to CPE score: 1: Complete monolayer with few gaps or dead cells; 2: Some gaps in the monolayer; dead cells more evident; 3: Increasing number of gaps in the monolayer concurrent with dead cells; 4: Gaps widely distributed throughout the monolayer and of increasing size; 5: Large holes forming as smaller gaps merge; copious dead cells evident; 6: Monolayer integrity lost. Small islands of attached cells amid predominantly dead cells; settings: for CPE score: Influenza B, MDCK, virus + DMSO control 4
[4] = tested on: Influenza A (strain A/PR/8/34); assay: as above; format: cell-based; set-up: key to CPE score: 1: Complete monolayer with few gaps or dead cells; 2: Some gaps in the monolayer; dead cells more evident; 3: Increasing number of gaps in the monolayer concurrent with dead cells; 4: Gaps widely distributed throughout the monolayer and of increasing size; 5: Large holes forming as smaller gaps merge; copious dead cells evident; 6: Monolayer integrity lost. Small islands of attached cells amid predominantly dead cells; settings: for CPE score: Influenza A, MDCK
[5] = tested on: SH-SY5Y neuroblastoma cells; assay: MTT (CIMA) cell proliferation assay, acute and chronic exposure (Example 3); settings: SH-SY5Y
Method: (§5) Compound preparation: Stock solutions of test compounds were prepared in dimethylsulfoxide (DMSO) at 250 mg/ml. Working concentrations of 10 mg/ml were subsequently prepared from the stock solution and stored in 50 μl aliquots at −20° C. until used.
(§6) Cells and cell culture: Proof-of-principle studies in this example focused on two human brain cancer cell lines, namely SH-SY5Y neuroblastoma cells and U373 astroglioma cells. […] Both cells were maintained in (50:50) F12:DMEM medium supplemented with 10% fetal calf serum (FCS) and antibiotics in a humidified, 5% CO2 environment. Cells were passaged as required by trypsinization.
(§7) Assays conditions: The effects of the test compounds were assessed following acute and chronic exposure conditions. […] The test compounds were evaluated over a broad range of concentrations (0, 0.5, 1, 5, 10, 50, 100 and 250 μg/ml) with cells treated with equivalent concentrations of vehicle (DMSO) serving as controls.
(§8) Cell proliferation assay: Cell proliferation was assessed using a standard colorimetric indicator of metabolic activity (CIMA) assay. In this assay, the reduction of yellow tetrazolium salt (MTT) to purple formazan by mitochondrial reductase enzymes in viable cells was evaluated as a measure of metabolic activity to determine the extent of cell proliferation within a culture. The resulting colour change that conferred a change in absorbance was quantified using a spectrophotometer (λ=500-600). Samples were diluted as required to ensure that values obtained with the MTT assay fell within the linear range of the protocol. Qualitative microscopic evaluation of treated cultures was used to determine if overt cytotoxicity was present and to supplement the quantitative CIMA data.

[6] = tested on: all three transformed neuronal cell lines (IMR32, NG108, NSC34); assay: MTT (CIMA) cell proliferation assay (Example 4); settings: 72 h post-treatment; 0.5-250 μg/ml
Method: as §5
(§9) Cells and cell culture: Three classes of cells were evaluated: 1) neuroblastoma cells, 2) neuroglioma cells, and 3) non-transformed human neurons (see below). All cells were maintained in appropriate culture medium supplemented with 10% fetal calf serum (FCS) and antibiotics in a humidified, 5% CO2 environment. Cells were passaged as required by trypsinization.
(§10) Assay conditions: The effects of the test compounds were assessed following acute and chronic exposure conditions. […] Each compound was evaluated over a broad range of concentrations (0, 0.5, 1, 5, 10, 50, 100 and 250 μg/ml) with cells treated with equivalent concentrations of vehicle (DMSO) serving as controls.
(§11) Cell proliferation assay: Cell proliferation was assessed using a standard colorimetric indicator of metabolic activity (CIMA) assay. In this assay, the reduction of yellow tetrazolium salt (MTT) to purple formazan by mitochondrial reductase enzymes in viable cells was evaluated as a measure of metabolic activity to determine the extent of cell proliferation within a culture. […]

MDCK cells = assay: Cytotoxicity assay (MTT/CIMA) in MDCK cells (Example 7)
NSC34 motor neurons = assay: MTT (CIMA) cell proliferation assay (Example 4); settings: 72 h post-treatment
Method: as §5, §9, §10, §11

U373 astroglioma cells [7] = assay: MTT (CIMA) cell proliferation assay, acute and chronic exposure (Example 3)
Method: as §5, §6, §7, §8

[8] = both acute and chronic regimens

O=CCCCN1C(=O)c2ccccc2C1=O [Compound I(a), 4-(1,3-dioxo-1,3-dihydro-2H-isoindol-2-yl)butanal]
AVERAGE (mean absorbance) (U373 astroglioma cells [1]; 14 d incubation with 1 μg/ml, 24 h, control 0 μg/ml 0.569): 0.446
AVERAGE (mean absorbance) (U373 astroglioma cells [1]; 14 d incubation with 5 μg/ml, 24 h, control 0 μg/ml 0.569): 0.437
AVERAGE (mean absorbance) (U373 astroglioma cells [1]; 21 d incubation with 1 μg/ml, 24 h, control 0 μg/ml 0.617): 0.575
AVERAGE (mean absorbance) (U373 astroglioma cells [1]; 21 d incubation with 1 μg/ml, 72 h, control 0 μg/ml 0.547): 0.502
AVERAGE (mean absorbance) (U373 astroglioma cells [1]; 21 d incubation with 5 μg/ml, 24 h, control 0 μg/ml 0.617): 0.539
AVERAGE (mean absorbance) (U373 astroglioma cells [1]; 21 d incubation with 5 μg/ml, 72 h, control 0 μg/ml 0.547): 0.478
AVERAGE (mean absorbance) (U373 astroglioma cells [1]; 28 d incubation with 1 μg/ml, 24 h, control 0 μg/ml 0.567): 0.510
AVERAGE (mean absorbance) (U373 astroglioma cells [1]; 28 d incubation with 1 μg/ml, 72 h, control 0 μg/ml 0.598): 0.507
AVERAGE (mean absorbance) (U373 astroglioma cells [1]; 28 d incubation with 5 μg/ml, 24 h, control 0 μg/ml 0.567): 0.461
AVERAGE (mean absorbance) (U373 astroglioma cells [1]; 28 d incubation with 5 μg/ml, 72 h, control 0 μg/ml 0.598): 0.514
average decrease in activity (U373 astroglioma cells [1]; long term exposure up to 28 days, 1 and 5 μg/ml): approximately 20%
average decrease in activity ([2]; SH-SY5Y, long term exposure up to 28 days, 1 and 5 μg/ml): approximately 20%
AVERAGE (mean absorbance) ([2]; 14 d incubation with 1 μg/ml, 24 h, control 0 μg/ml 0.492): 0.508
AVERAGE (mean absorbance) ([2]; 14 d incubation with 5 μg/ml, 24 h, control 0 μg/ml 0.492): 0.388
AVERAGE (mean absorbance) ([2]; 21 d incubation with 1 μg/ml, 24 h, control 0 μg/ml 0.307): 0.311
AVERAGE (mean absorbance) ([2]; 21 d incubation with 1 μg/ml, 72 h, control 0 μg/ml 0.300): 0.268
AVERAGE (mean absorbance) ([2]; 21 d incubation with 5 μg/ml, 24 h, control 0 μg/ml 0.307): 0.277
AVERAGE (mean absorbance) ([2]; 21 d incubation with 5 μg/ml, 72 h, control 0 μg/ml 0.300): 0.269
AVERAGE (mean absorbance) ([2]; 28 d incubation with 1 μg/ml, 24 h, control 0 μg/ml 0.601): 0.597
AVERAGE (mean absorbance) ([2]; 28 d incubation with 1 μg/ml, 72 h, control 0 μg/ml 0.489): 0.389
AVERAGE (mean absorbance) ([2]; 28 d incubation with 5 μg/ml, 24 h, control 0 μg/ml 0.601): 0.531
AVERAGE (mean absorbance) ([2]; 28 d incubation with 5 μg/ml, 72 h, control 0 μg/ml 0.489): 0.423
effect on CPE (summary in words) ([3]; Influenza B infection): mild to moderate reduction in CPE
CPE score ([3]; 24 hpi, 0.5 μg/ml): 3
CPE score ([3]; 24 hpi, 1.0 μg/ml): 3
CPE score ([3]; 24 hpi, 5.0 μg/ml): 2
CPE score ([3]; 24 hpi, 10 μg/ml): 2
CPE score ([3]; 24 hpi, 25 μg/ml): 4
CPE score ([3]; 24 hpi, 50 μg/ml): 4
CPE score ([3]; 24 hpi, 100 μg/ml): 5
CPE score ([3]; 48 hpi, 0.5 μg/ml): 3
CPE score ([3]; 48 hpi, 1.0 μg/ml): 3
CPE score ([3]; 48 hpi, 5.0 μg/ml): 3
CPE score ([3]; 48 hpi, 10 μg/ml): 3
CPE score ([3]; 48 hpi, 25 μg/ml): 4
CPE score ([3]; 48 hpi, 50 μg/ml): 5
CPE score ([3]; 48 hpi, 100 μg/ml): 6
CPE score ([4]; 0.5 μg/ml, virus + DMSO control 3): 1 ^5
CPE score ([4]; 0.5 μg/ml, virus + DMSO control 4): 4
CPE score ([4]; 1.0 μg/ml, virus + DMSO control 3): 1
CPE score ([4]; 1.0 μg/ml, virus + DMSO control 4): 3
CPE score ([4]; 5.0 μg/ml, virus + DMSO control 3): 1
CPE score ([4]; 5.0 μg/ml, virus + DMSO control 4): 3
CPE score ([4]; 10 μg/ml, virus + DMSO control 3): 1
CPE score ([4]; 10 μg/ml, virus + DMSO control 4): 3
CPE score ([4]; 25 μg/ml, virus + DMSO control 3): 1
CPE score ([4]; 25 μg/ml, virus + DMSO control 4): 3
CPE score ([4]; 50 μg/ml, virus + DMSO control 3): 3
CPE score ([4]; 50 μg/ml, virus + DMSO control 4): 5
CPE score ([4]; 100 μg/ml, virus + DMSO control 3): 4
CPE score ([4]; 100 μg/ml, virus + DMSO control 4): 5
effect on CPE (summary in words) ([4]; comparatively lower concentrations): mild to moderate reduction in CPE
decrease in MTT activity ([5]; acute treatment (24 h), 0.25 mg/ml): approximately 30%
change in MTT activity ([5]; acute treatment (24 h), other concentrations evaluated (below 0.25 mg/ml)): No significant change in MTT activity
LD50 [5, 8]: exceeds 0.25 mg/ml
decrease in MTT activity ([5]; chronic treatment (72 h), 50 μg/ml): 25%
decrease in MTT activity ([5]; chronic treatment (72 h), 100 μg/ml): 25%
decrease in MTT activity ([5]; chronic treatment (72 h), 250 μg/ml): 25%
viability/proliferation [6]: dose-dependent decreases in viability/proliferation
Toxicity (MTT), fold changes relative to vehicle controls (MDCK cells; 24 h exposure, 0.5 μg/ml): 1.09 fold
Toxicity (MTT), fold changes relative to vehicle controls (MDCK cells; 24 h exposure, 1.0 μg/ml): 1.24 fold
Toxicity (MTT), fold changes relative to vehicle controls (MDCK cells; 24 h exposure, 5.0 μg/ml): 1.18 fold
Toxicity (MTT), fold changes relative to vehicle controls (MDCK cells; 24 h exposure, 10 μg/ml): 1.15 fold
Toxicity (MTT), fold changes relative to vehicle controls (MDCK cells; 24 h exposure, 25 μg/ml): 1.06 fold
Toxicity (MTT), fold changes relative to vehicle controls (MDCK cells; 24 h exposure, 50 μg/ml): 1.08 fold
Toxicity (MTT), fold changes relative to vehicle controls (MDCK cells; 24 h exposure, 100 μg/ml): 0.98 fold
Toxicity (MTT), fold changes relative to vehicle controls (MDCK cells; 72 h exposure, 0.5 μg/ml): 1.05 fold
Toxicity (MTT), fold changes relative to vehicle controls (MDCK cells; 72 h exposure, 1.0 μg/ml): 0.99 fold
Toxicity (MTT), fold changes relative to vehicle controls (MDCK cells; 72 h exposure, 5.0 μg/ml): 1.15 fold
Toxicity (MTT), fold changes relative to vehicle controls (MDCK cells; 72 h exposure, 10 μg/ml): 1.01 fold
Toxicity (MTT), fold changes relative to vehicle controls (MDCK cells; 72 h exposure, 25 μg/ml): 0.96 fold
Toxicity (MTT), fold changes relative to vehicle controls (MDCK cells; 72 h exposure, 50 μg/ml, decreases exceeding 25% considered toxic): 0.71^3 fold
Toxicity (MTT), fold changes relative to vehicle controls (MDCK cells; 72 h exposure, 100 μg/ml, decreases exceeding 25% considered toxic): 0.56 fold
cytotoxicity (summary in words) (MDCK cells; higher concentrations (≧25 μg/ml)): toxicity associated with the compound itself
LD50 (NSC34 motor neurons): < 0.25 mg/mL
overt cell death / reductions in MTT activity (U373 astroglioma cells [7]; acute (24 h) and chronic (72 h) treatment, 0.5-250 μg/ml): Neither overt cell death nor significant reductions in MTT activity
LD50 (U373 astroglioma cells [7]; [8]): exceeds 0.25 mg/ml
